The values that follow come from patent US10517870B2, “Aryl substituted bicycle heteroaryl compounds” (Bristol-Myers Squibb Company, priority 2015, dated 2019).

Structures are written as SMILES. Where two headings read alike, the source gives them in different places. Some results are limits rather than exact numbers.

The subject of one data set is Saos-2 (HPV−) cells. Briefly: Cell proliferation/viability assay, Saos-2 cells. It is filed as cell-based. The following applies: Homo sapiens. The protocol: (§1) Caski (catalog number CRL-1550), SiHa (catalog number HTB-35), C33A (catalog number HTB-31), Saos-2 (ATCC HTB-85), and Hela (catalog number CCL-2) cells were obtained from the American Type Culture Collection (ATCC). The human cervical carcinoma cell lines Caski. SiHa, Hela and C33A, and the human osteosarcoma cell line Saos-2, and the human keratinocyte cell line HaCaT were cultured in Dulbecco's Modified Eagle Medium (DMEM, Invitrogen catalog number 11965-092) supplemented with 10% fetal bovine serum. The colorectal carcinoma cell line HCT-116 was cultured in Roswell Park Memorial Institute-1640 Medium (Invitrogen catalog number 11875-093) supplemented with 10% FBS. All cells were incubated at 37° C. in a humidified atmosphere with 5% CO2 in air. To establish the SCHPV-18 cell line, one million primary neonatal human foreskin keratinocytes (Invitrogen, catalog no. C-001-5C), cultured in KBM Gold-keratinocvte cell basal medium (Lonza, catalog no. 192060), were electroporated with 5 μg HPV-18 plasmid DNA (ATCC catalog no. 45152D) using the Amaxa Nucleofector II on setting T-007. Cells were co-transfected with 2 μg plasmid pZSGreen1-N1 (Clontech catalog no. 632448) encoding G418 resistance, and cells were selected for four days in 100 μg/ml G418, after which selection was removed. Cells were maintained in culture six months prior to compound testing. Integration of the HPV 18 genome was confirmed by Southern blot. Control cells transfected in parallel with pZSGreen1-N1 alone became senescent four days after selection and the culture could not be expanded. SCHPV-18 cells were maintained in E medium (Fehrmann F, Laimins L A. Human papillomavirus type 31 life cycle: methods for study using tissue culture models. Methods Mol Biol 2005; 292:317-330).
(§2) For proliferation assays, cells were plated in white polystyrene 96-well plates (Costar catalog number 3917) for CellTiter Glo viability assays or 96-well special optics plates (Costar cat #3614) for CellTiter Blue viability assays. Cells were plated in the appropriate growth medium without antibiotics. Two hours after cell plating, a 200× compound stock diluted in DMSO was added to a final concentration of 0.5%. Plates were incubated at 37° C., for 4 days and then cell viability was assessed using either CellTiter Blue (Promega catalog number G8081) or CellTiter Glo (Promega catalog number G7572) according to the manufacturer's instructions. For the CellTiter Blue viability assay, data was collected using the SpectraMax Gemini EM (Molecular Devices) with an excitation wavelength of 530 nm and emission wavelength of 590 nm. For the CellTiter Glo viability assay, data was collected using the Envision Mulitlabel Reader (Perkin Elmer catalog number 2104-0010). To calculate IC50 and EC50 values, percent inhibition curves were fit using a four-parameter logistic formula [y=A+[…]], where A and B denote minimal and maximal % inhibition, respectively, C is the IC50 value, D is the Hill slope, and x represents compound concentration.
(§3) Table C, below, sets out the results obtained employing various compounds of the invention tested for their effects on proliferation of such cells. Caski or SiHa cells, transformed by HPV 16, Hela cells, transformed by HPV 18, or HPV-negative control cell lines (Saos-2 or C33a) were treated with various compounds. […] Unlike the HPV-negative Saos-2 or C33a cell lines, the HPV-transformed cell lines rely on the presence of HPV for their continued proliferation. Therefore, a comparison of IC50 values from HPV-transformed cell lines with IC50 values obtained from HPV-negative cell lines can be used to test for compound selectivity.

For another data set, the system named is C33A (HPV−) cells. Briefly: Cell proliferation/viability assay, C33A cells. It is filed as cell-based. The conditions noted are these: Homo sapiens, C-33-A, 96 h. The protocol: as §1, §2, §3
The next data set deals with HeLa (HPV18+) cells. Briefly: Cell proliferation/viability assay, HeLa cells. It is filed as cell-based. The conditions noted are these: Homo sapiens, 96 h, 4 days. The procedure:
as §1, §2, §3

For another data set, the system named is Caspase-3/-7 activity. Briefly: Apoptosis assay (Caspase-Glo 3/7) in HPV-transformed and HPV-negative cell lines. The class given is cell-based, human. The protocol:
Apoptosis is a cellular process in which a cascade of events, controlled by proteolytic cleavage events, results in chromatin condensation, blebbing of the cell membrane, fragmentation of cellular DNA, and cell death. Caspases 3 and 7 are enzymes which control initiation of the later stages of apoptosis. Caspase-3/-7 activity can therefore be used as a measure of induction of apoptosis in response to compound treatment. For caspase-3/7 activity assays, cells were plated in 96-well plates (Costar catalog no. 3917) in DMEM with 10% FBS two hours before compound treatment. Cells were treated with compounds in a final concentration of 0.5% DMSO, then the Caspase-Glo 3/7 Assay (Promega catalog no. G8090) was performed according to manufacturer's instructions. […] Luminescence was measured using the EnVision Multilabel Reader (Perkin Elmer catalog no. 2104-0010) with aperture diameter 6 mm, height 4.2 mm, and measurement time of 0.1 second per well.
Example 15 was tested in an apoptosis assay using three HPV-transformed cell lines (Caski, SiHa, and SCHPV-18) and four HPV-negative cell lines (HCT-116, HaCat, C33a, and Saos-2). The cell lines were treated with a range of concentrations of the compound and induction of Caspase-3/-7 activity was measured relative to vehicle (DMSO)-treated controls.

For a further data set, the system named is SiHa (HPV16+) cells. Briefly: Cell proliferation/viability assay, SiHa cells. The class given is cell-based. The conditions noted are these: Homo sapiens, 96 h, 4 days. The procedure: as §1, §2, §3
The next data set relates to Caski (HPV16+) cells. Description: Cell proliferation/viability assay, Caski cells. It is filed as cell-based. The following applies: Homo sapiens, Ca-Ski, 96 h, 4 days. The procedure: as §1, §2, §3
The target in the next data set is T1, PAR4 (Homo sapiens, UniProt Q96RI0).
T1 construct: expressed in transfected cells; host or cells: HEK293 PAR4 Clone 1.2A
T1 sequence (Q96RI0 18-385): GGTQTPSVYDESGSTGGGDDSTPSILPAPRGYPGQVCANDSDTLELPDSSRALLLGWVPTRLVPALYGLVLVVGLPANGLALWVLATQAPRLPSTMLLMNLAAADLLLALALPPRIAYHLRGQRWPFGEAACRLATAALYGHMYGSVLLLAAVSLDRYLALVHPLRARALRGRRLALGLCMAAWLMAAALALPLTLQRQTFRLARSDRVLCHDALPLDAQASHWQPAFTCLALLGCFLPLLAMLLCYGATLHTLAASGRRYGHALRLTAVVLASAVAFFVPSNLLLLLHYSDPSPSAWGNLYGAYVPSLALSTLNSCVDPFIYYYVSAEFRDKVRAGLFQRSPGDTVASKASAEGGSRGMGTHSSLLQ
Description: PAR4 FLIPR assay (calcium mobilization, antagonist activity) in PAR4-expressing HEK293 cells. The class given is cell-based. An excerpt: The FLIPR assay is an exemplary in vitro assay for measuring the activity of the PAR4 antagonists of the present invention. In this assay, intracellular calcium mobilization is induced in PAR4 expressing cells by a PAR4 agonist and calcium mobilization is monitored.
HEK293 cells stably expressing PAR4 were generated by a standard method of transfection of human PAR4 (F2R23) cDNA expression vector and selected based on PAR4 protein expression or mRNA expression. […] These cells also express endogenous PAR1 and can elicit calcium signal upon stimulation with PAR1 agonist peptide. Therefore, the same cells were also used to determine selectivity against PAR1 and agonist activity for both receptors. Cells from HEK293 PAR4 Clone 1.2A (BMS Arctic ID 383940) were propagated and used for calcium mobilization studies.
FLIPR-based calcium mobilization assay in HEK293 cells was used to measure PAR4 antagonism, agonism, and selectivity against PAR1. The activity of the PAR4 antagonists of the present invention were tested in PAR4 expressing cells by monitoring H-Ala-Phe(4-F)-[…]NH2-induced intracellular calcium mobilization. Counter screens for agonist activity and PAR1 antagonist activity were also performed. Briefly, PAR1/PAR4-expressing HEK293 cells were grown in DMEM (Life Technology, Grand Island, N.Y.) containing 10% heat-inactivated FBS, 1% Penicillin-Streptomycin, 10 μg/mL blasticidin, and 100 μg/mL Zeocin at 37° C. with 5% CO2. Cells were plated overnight prior to the experiment in a black 384-well Purecoat Amine clear bottom plate (Becton Dickinson Biosciences, San Jose, Calif.) at 10,000 cells/well in 30 μL growth medium and incubated in a humidified chamber at 37° C. with 5% CO2 overnight. Prior to compound addition, the cell medium was replaced with 40 μL of IX calcium and magnesium-containing Hank's Balanced Saline Solution (HBSS) (with 20 mM HEPES) and 1:1000 diluted fluorescent calcium indicator (Codex Biosolutions, Gaithersburg, Md.). After a 30 minute incubation period at 37° C., and a further 30 minute incubation and equilibration period at room temperature, 20 μL test compound (diluted in 1×HBSS buffer) was added at various concentrations at 0.17% dimethyl sulfoxide (DMSO) final concentration. Changes in fluorescence intensity were measured using a Functional Drug Screening System (FDSS, Hamamatsu, Japan) to determine agonist activities. The cells were then incubated for 30 minutes at room temperature followed by addition of 20 μL of agonist peptide for antagonist activity measurement. […] Compound potency was derived from 11-point concentration-response curves.

Data set [1] addresses T2, protease-activated receptor type 4 (PAR4) (Homo sapiens, UniProt Q96RI0).
T2 sequence (Q96RI0 18-385): T1 sequence (Q96RI0 18-385)
The conditions noted are these: Lee et al., J. Med. Chem. 2001; cited from earlier work.

The conditions of data set [2]: ACS patients, TRACER phase III trial; cited from earlier work.
The mark [3] stands for this setting: SAOS-2, 96 h, read-out: Saos-2 (HPV−) Proliferation IC50 (μM).
Where [4] appears, read: read-out: C33A (HPV−) Proliferation IC50 (μM).

Regarding `COc1ccc(-c2cc(C(F)(F)F)cc3nc(OC(F)F)cnc23)cc1Br` [Example 15, 5-(3-bromo-4-methoxyphenyl)-2-(difluoromethoxy)-7-(trifluoromethyl)quinoxaline], the IC50 is above 99.5 µM in the data set with Saos-2 (HPV−) cells (96 h, Saos-2, HPV-negative, 4 days, read-out: Saos-2 (HPV−) Proliferation IC50); above 99.5 µM in the data set on C33A (HPV−) cells (C33A, HPV-negative, 4 days, read-out: C33A (HPV−) Proliferation IC50); 18.2 µM in the data set on HeLa (HPV18+) cells; 12.9 µM in the data set with SiHa (HPV16+) cells; 16.5 µM in the data set on Caski (HPV16+) cells. In the data set on Caspase-3/-7 activity (HPV-positive cell lines (Caski, SiHa, SCHPV-18), relative to vehicle (DMSO)-treated controls), the “increase in Caspase-3/-7 activity” value is given as “greater than 10 fold”. Besides, the induction of apoptosis result in the data set with Caspase-3/-7 activity (HPV-positive versus HPV-negative cell lines (HCT-116, HaCat, C33a, Saos-2)) was “selectively induced apoptosis in HPV-positive cell lines”.
`Cc1cc(-c2ccc(Cl)c(Cl)c2)c2ncc(OC(F)F)nc2c1` [Example 24, 5-(3,4-dichlorophenyl)-2-(difluoromethoxy)-7-methylquinoxaline]: the IC50 on PAR4 is 3.3 µM; with Saos-2 (HPV−) cells (setting [3]), above 100 µM; in the data set with C33A (HPV−) cells (setting [4]), 89.4 µM; with HeLa (HPV18+) cells, 12.7 µM; in the data set on SiHa (HPV16+) cells, 8.9 µM; in the data set with Caski (HPV16+) cells, 12.8 µM.
With `Cc1cc(-c2cccc(OC(F)(F)F)c2)c2ncc(OC(F)F)nc2c1` [Example 26, 2-(difluoromethoxy)-7-methyl-5-(3-(trifluoromethoxy)phenyl) quinoxaline], the IC50 on PAR4 was 0.4 µM; with Saos-2 (HPV−) cells (setting [3]), above 100 µM; with C33A (HPV−) cells (setting [4]), above 100 µM; in the data set on HeLa (HPV18+) cells, 4.6 µM; with SiHa (HPV16+) cells, 3.8 µM; in the data set with Caski (HPV16+) cells, 6 µM.
Take `CCOC(=O)c1ccc(-c2nn(Cc3ccccc3)c3ccccc23)cc1` [YD-3]: the “inhibition of PAR4-dependent platelet activation” value in data set [1] was “selective and potent inhibitor”.
Take `CCOC(=O)N[C@@H]1CC[C@@H]2[C@@H](C1)C[C@H]1C(=O)O[C@H](C)[C@H]1[C@H]2/C=C/c1ccc(-c2cccc(F)c2)cn1` [vorapaxar]: in data set [2], the cardiovascular events entry was “did not significantly reduce cardiovascular events” and the “risk of major bleeding” value is listed as “significantly increased the risk of major bleeding”.
